Active and inactive are the calls of the source.
What was measured:
Cytochrome P450 1A2 = target: T1, Cytochrome P450 1A2 (Homo sapiens, UniProt P05177);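 also: PubChem cytochrome P450 panel assay, CYP1A2 panel member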
T1 sequence (P05177 whole entry): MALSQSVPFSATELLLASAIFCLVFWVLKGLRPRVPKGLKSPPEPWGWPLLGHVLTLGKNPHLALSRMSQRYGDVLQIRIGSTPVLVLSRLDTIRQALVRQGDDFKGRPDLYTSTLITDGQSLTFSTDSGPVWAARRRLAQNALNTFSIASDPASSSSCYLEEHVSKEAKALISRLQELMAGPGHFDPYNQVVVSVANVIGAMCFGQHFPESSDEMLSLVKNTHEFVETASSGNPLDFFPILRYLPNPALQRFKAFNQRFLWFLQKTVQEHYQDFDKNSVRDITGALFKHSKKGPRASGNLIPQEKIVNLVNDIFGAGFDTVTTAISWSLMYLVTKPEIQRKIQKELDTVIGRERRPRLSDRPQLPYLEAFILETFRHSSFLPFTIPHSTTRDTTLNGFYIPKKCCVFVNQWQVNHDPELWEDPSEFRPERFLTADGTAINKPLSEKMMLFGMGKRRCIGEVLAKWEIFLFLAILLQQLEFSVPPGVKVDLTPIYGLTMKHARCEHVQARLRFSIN

fMet-Leu-Phe receptor = target: T2, fMet-Leu-Phe receptor (Homo sapiens, UniProt P21462); test: FPR ligands, dose response (AID 519); assay type: functional
T2 sequence (P21462 whole entry): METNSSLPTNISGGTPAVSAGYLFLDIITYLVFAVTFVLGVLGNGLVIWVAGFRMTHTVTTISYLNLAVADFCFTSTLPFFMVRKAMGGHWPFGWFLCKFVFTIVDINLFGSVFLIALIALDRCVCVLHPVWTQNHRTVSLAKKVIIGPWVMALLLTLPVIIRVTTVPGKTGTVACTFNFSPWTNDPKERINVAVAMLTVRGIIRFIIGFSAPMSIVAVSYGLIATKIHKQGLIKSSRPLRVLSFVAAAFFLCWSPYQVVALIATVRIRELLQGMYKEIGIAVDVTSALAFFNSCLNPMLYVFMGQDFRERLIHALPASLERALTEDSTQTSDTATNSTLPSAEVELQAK

Cytochrome P450 3A4 = Cytochrome P450 3A4 (Homo sapiens, UniProt P08684);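 also: CYP3A4 tested as one member of a cytochrome P450 panel screen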
Mucolipin-3 = target: T3, Mucolipin-3 (Homo sapiens, UniProt Q8TDD5); test: Dose response cell-based high-throughput screening assay for agonists of the transient receptor potential channel ML3 (TRPML3). [Related pubchem assays: 1526, 1424, 1448 ]; assay type: functional
T3 sequence (Q8TDD5 whole entry): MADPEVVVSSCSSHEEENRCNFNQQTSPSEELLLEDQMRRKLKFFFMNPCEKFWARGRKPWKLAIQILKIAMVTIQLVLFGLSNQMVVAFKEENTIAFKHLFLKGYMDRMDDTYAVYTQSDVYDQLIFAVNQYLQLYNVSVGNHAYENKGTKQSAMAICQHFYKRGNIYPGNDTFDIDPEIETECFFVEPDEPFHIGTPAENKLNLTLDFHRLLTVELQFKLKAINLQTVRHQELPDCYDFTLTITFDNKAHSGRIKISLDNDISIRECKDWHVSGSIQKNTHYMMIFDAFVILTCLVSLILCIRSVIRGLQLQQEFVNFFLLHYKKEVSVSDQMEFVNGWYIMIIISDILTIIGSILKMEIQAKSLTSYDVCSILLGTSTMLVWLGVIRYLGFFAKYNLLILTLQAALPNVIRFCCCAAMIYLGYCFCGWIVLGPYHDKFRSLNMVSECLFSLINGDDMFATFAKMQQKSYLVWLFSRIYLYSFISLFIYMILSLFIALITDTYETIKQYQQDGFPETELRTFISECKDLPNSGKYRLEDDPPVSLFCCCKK

Ion channel NompC = Ion channel NompC (Danio rerio, UniProt Q7T1G6); test: Fluorescence counterscreen assay for TRPML3 agonists: dose response cell-based high-throughput screening assay to identify agonists of the transient receptor potential channel N1 (TRPN1). [Related pubchem assays: 1526, 1424, 1448 ]; assay type: functional
[1] = HepG2 cell cytotoxicity, dose response, cytotoxicity control, plate reader, cherry-pick, antagonist series (AID 743416); assay type: functional, cell-based
cells [2] = assay type: functional, cell-based
[3] = A549 cell cytotoxicity, dose response, cytotoxicity control, plate reader, cherry-pick, antagonist series (AID 743412); assay type: functional, cell-based
[4] = LGR2 antagonists, dose response, cell-based, HEK293, CRE-luciferase reporter, cherry pick, set 2 (AID 743343); assay type: functional;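 also: transfected cells were stimulated with diluted bursicon conditioned medium after compound addition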
[5] = MC4R antagonists, dose response, counter-screen for LGR2 antagonist project, cell-based, plate reader, cherry pick (AID 743444); assay type: functional;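 also: transfected HEK 293 cells stimulated with alpha-MSH peptide; potency of inhibitors of the alpha-MSH evoked signal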
[6] = target: T4, Oxysterols receptor LXR-beta (Homo sapiens, UniProt P55055); assay type: functional, cell-based;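 also: Cell-based luminescence dose-response assay of agonist activity at LXR, run as a confirmatory counterscreen to a daf-12 agonist screen; HEK293 cells with Gal4-LXR fusion and GAL4-driven luciferase reporter; agonist potency from rising luciferase signal of a Gal4-LXR reporter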
T4 sequence (P55055 whole entry): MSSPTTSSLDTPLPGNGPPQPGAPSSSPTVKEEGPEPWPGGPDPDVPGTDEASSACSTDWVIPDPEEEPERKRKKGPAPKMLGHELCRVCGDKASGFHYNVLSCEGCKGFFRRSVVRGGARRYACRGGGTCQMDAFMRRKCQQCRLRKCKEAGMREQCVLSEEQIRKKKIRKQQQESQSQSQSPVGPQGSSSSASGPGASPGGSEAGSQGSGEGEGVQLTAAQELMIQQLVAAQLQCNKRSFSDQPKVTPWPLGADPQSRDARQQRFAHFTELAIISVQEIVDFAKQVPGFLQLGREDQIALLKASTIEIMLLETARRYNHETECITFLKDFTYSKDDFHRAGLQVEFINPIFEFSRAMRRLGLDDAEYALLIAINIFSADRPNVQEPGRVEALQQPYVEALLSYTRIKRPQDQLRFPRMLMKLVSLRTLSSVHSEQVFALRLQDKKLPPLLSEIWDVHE

cells [7] = assay type: functional, cell-based; remark: listed apart in the source
cells [8] = test: cells
[9] = HEK293 cell cytotoxicity, dose response, cytotoxicity control, plate reader, cherry-picked samples (AID 743446); assay type: functional, cell-based
[10] = target: T5, Lysosomal acid glucosylceramidase (Homo sapiens, UniProt P04062); test: Dose response cell-based high throughput screening assay to identify enhancers of beta-glucosidase activity. [Related pubchem assays: 784 ]; assay type: functional
T5 sequence (P04062 whole entry): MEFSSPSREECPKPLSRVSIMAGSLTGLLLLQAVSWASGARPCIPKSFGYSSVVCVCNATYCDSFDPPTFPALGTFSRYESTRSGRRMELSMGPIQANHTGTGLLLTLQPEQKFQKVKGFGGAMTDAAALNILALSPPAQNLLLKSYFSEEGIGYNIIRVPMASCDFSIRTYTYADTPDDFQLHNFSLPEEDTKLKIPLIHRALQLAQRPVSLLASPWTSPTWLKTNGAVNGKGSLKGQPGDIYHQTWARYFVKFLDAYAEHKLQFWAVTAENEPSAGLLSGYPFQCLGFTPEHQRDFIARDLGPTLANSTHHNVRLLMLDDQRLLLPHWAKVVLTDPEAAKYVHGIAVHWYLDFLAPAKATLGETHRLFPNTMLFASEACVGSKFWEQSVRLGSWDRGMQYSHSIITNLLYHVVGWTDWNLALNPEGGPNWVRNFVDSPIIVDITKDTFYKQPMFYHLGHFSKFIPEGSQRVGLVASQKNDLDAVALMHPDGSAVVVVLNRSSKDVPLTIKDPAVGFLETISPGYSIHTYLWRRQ

[11] = cytotoxicity in OVCAR8 ovarian cancer cells, dose response, PAX8 project, cell-based, plate reader, dry powder samples (AID 743197); assay type: functional; settings: OVCAR-8
Paired box protein Pax-8 = Paired box protein Pax-8 (Homo sapiens, UniProt Q06710); test: inhibitors of PAX8-driven TPO luciferase reporter, dose response, RMG-I cells, cherry-pick (AID 687027); assay type: functional, cell-based;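 also: luciferase reporter driven by Pax8 target thyroperoxidase promoter measured by SteadyGlo luminescence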
[12] = NIH:OVCAR-3 ovarian cancer cell cytotoxicity, dose response, PAX8 inhibitor project, plate reader, dry powder samples (AID 743044); assay type: functional, cell-based
[13] = IGROV1 ovarian cancer cell cytotoxicity, dose response, PAX8 inhibitor project, plate reader, dry powder samples (AID 743043); assay type: functional, cell-based; settings: IGROV-1
Prothrombin = Prothrombin (Homo sapiens, UniProt P00734); test: Thrombin 1536 HTS Dose Response Confirmation. [Related pubchem assays: 1046 (Thrombin 1536 HTS; hits were confirmed in this assay)]; assay type: functional
[14] = target: Heat shock protein HSP 90-alpha (Homo sapiens, UniProt P07900); test: Luminescence-based dose response biochemical high throughput screening assay for inhibitors of the Heat Shock Protein 90 (HSP90). [Related pubchem assays: 1831 (Summary AID.), 1846 (Confirmation screen.), 1789 (Primary screen.)]
[15] = Luminescence Cell-Based Dose Confirmation HTS to Identify Inhibitors of Platelet Dense Granule Release. [Related pubchem assays: 1663 (Primary HTS), 1678 (Summary of Project)]; assay type: functional
[16] = target: T6, Luciferin 4-monooxygenase (Photinus pyralis, UniProt P08659); test: Counter Screen for Luciferase-based Assay Positives. [Related pubchem assays: 620, 618, 411 ]
HT-1080 = test: cytotoxicity in HT1080 fibrosarcoma cells, cell-based, fluorescence readout (AID 620); assay type: functional; settings: Homo sapiens
[17] = target: T6, Luciferin 4-monooxygenase; test: firefly luciferase enzyme inhibitors, dose response, biochemical, luminescence (AID 1891)
Cytochrome P450 2C19 = Cytochrome P450 2C19 (Homo sapiens, UniProt P33261); test: Cytochrome panel assay with activity outcomes. Panel member name: p450-cyp2c19 Compounds with AC50 equal or less than 10 uM are considered active; assay type: functional; settings: read-out: AC50
[18] = target: Protein-tyrosine kinase 2-beta (Homo sapiens, UniProt Q14289);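 also: potency of inhibitors of PYK2 kinase phosphorylation of poly-GT substrate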
Chain of Protein-tyrosine kinase 2-beta (Q14289 whole entry): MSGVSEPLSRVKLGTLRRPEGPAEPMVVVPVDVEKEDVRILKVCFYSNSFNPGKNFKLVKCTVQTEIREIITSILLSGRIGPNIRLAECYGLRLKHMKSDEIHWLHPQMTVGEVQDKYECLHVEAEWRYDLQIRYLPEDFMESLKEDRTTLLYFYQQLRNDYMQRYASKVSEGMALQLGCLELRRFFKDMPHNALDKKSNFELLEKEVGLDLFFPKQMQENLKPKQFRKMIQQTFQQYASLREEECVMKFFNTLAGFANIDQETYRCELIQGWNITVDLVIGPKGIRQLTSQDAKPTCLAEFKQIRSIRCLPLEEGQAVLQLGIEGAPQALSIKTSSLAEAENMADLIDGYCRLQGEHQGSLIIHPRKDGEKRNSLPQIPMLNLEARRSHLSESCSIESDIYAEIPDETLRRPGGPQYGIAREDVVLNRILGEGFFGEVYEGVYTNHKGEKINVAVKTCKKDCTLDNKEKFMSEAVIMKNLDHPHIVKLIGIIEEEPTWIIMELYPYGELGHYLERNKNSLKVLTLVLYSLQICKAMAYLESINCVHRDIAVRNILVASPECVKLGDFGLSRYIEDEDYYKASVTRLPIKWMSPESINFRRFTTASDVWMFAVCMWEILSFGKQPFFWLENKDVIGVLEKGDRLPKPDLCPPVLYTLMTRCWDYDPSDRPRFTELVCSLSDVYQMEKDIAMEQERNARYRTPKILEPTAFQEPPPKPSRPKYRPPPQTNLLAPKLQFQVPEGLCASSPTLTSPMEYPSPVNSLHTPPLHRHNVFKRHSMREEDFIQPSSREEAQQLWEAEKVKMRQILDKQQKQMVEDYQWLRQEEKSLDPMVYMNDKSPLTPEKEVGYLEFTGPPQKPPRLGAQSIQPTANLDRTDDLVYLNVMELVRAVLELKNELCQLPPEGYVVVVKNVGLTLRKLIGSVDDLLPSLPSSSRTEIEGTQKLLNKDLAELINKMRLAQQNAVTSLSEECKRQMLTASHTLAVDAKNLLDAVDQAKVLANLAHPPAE

T6 sequence (P08659 whole entry): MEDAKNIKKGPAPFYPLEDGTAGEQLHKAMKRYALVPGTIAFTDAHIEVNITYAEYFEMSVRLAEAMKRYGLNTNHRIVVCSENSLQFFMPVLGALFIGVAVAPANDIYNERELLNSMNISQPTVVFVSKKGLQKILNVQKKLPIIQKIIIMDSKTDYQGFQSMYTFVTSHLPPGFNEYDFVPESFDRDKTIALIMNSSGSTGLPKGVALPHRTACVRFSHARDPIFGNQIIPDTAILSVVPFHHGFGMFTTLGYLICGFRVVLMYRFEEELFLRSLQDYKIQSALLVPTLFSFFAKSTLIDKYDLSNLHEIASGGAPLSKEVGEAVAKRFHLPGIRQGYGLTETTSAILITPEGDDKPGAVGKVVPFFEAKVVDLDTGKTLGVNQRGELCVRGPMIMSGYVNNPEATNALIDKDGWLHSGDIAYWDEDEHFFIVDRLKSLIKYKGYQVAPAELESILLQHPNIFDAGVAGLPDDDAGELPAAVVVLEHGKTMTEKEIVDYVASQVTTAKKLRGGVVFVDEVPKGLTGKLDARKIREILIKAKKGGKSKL
Chain of Ion channel NompC (Q7T1G6 whole entry): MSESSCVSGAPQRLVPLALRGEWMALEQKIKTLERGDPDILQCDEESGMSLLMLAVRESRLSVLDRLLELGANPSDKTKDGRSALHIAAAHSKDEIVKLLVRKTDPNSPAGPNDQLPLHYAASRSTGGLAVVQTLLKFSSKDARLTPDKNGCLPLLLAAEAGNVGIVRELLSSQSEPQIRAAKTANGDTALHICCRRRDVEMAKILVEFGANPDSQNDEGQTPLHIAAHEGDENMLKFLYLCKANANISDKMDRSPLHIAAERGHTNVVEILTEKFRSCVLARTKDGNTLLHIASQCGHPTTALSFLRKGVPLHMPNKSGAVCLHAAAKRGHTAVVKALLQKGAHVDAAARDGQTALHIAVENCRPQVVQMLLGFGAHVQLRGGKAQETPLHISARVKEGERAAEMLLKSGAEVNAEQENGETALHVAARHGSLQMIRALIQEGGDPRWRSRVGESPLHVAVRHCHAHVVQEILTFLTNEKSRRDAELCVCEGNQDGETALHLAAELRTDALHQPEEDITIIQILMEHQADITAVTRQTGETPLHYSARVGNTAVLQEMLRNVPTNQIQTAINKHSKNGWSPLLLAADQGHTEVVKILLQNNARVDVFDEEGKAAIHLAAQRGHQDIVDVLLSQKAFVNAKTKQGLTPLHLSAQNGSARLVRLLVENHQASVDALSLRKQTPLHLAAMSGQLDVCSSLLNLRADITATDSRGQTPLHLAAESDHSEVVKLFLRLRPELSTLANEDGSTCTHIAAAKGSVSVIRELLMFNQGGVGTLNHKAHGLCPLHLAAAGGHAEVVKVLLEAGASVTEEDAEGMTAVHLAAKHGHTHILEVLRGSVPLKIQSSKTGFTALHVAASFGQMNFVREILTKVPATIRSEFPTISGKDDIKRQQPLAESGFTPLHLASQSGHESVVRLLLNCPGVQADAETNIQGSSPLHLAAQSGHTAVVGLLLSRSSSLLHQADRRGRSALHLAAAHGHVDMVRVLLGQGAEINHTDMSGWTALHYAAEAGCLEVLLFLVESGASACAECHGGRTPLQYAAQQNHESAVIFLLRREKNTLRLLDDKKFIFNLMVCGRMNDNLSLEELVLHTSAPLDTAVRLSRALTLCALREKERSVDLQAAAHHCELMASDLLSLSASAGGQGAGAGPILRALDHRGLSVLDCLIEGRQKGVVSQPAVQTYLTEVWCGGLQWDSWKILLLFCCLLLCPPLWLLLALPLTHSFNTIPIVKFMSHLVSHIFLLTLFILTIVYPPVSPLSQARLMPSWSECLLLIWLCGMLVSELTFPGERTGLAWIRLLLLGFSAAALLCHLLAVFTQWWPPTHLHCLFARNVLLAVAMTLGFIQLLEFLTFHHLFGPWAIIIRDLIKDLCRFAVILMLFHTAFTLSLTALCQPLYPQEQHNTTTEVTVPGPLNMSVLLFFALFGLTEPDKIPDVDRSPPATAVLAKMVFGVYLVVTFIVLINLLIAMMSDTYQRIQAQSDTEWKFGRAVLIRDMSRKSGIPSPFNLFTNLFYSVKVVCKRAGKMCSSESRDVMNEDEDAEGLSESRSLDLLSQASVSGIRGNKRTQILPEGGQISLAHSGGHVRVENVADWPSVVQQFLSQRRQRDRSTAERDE
Chain of Paired box protein Pax-8 (Q06710 whole entry): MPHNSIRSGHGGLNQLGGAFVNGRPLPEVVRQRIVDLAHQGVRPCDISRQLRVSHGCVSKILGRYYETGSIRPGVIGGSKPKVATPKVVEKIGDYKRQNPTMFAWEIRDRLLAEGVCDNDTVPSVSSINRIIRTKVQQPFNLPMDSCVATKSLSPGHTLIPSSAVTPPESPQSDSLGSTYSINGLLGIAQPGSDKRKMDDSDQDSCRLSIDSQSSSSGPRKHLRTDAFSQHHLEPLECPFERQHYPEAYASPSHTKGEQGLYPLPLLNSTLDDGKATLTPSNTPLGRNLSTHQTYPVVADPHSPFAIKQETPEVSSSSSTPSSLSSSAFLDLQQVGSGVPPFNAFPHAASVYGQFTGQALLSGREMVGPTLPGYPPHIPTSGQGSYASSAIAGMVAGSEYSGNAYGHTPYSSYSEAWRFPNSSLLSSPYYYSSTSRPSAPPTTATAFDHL
Chain of Cytochrome P450 3A4 (P08684 whole entry): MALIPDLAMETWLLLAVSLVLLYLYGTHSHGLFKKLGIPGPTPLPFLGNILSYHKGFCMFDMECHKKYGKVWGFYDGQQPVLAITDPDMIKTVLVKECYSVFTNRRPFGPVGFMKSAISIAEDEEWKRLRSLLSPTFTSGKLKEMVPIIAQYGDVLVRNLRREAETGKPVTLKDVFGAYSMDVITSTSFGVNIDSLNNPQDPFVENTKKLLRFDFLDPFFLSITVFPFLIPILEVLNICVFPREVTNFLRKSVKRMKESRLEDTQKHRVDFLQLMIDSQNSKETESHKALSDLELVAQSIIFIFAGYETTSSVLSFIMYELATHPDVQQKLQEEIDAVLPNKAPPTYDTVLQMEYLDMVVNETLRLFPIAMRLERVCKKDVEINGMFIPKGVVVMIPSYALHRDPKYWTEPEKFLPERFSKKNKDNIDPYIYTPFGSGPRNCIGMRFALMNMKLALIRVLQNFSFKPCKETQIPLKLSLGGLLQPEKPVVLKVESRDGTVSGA
Chain of Cytochrome P450 2C19 (P33261 whole entry): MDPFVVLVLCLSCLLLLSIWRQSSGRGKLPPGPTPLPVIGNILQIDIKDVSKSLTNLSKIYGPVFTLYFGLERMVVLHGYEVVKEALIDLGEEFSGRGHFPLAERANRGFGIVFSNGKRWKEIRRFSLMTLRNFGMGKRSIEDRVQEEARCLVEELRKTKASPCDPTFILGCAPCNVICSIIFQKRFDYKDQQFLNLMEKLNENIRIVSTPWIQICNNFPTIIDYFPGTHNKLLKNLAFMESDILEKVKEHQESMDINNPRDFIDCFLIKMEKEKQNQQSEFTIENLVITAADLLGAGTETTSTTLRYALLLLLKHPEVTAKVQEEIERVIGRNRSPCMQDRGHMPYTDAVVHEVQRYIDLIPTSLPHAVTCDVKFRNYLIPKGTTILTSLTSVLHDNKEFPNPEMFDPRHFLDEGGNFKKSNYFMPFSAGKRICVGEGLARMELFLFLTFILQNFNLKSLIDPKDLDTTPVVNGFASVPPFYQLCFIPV

## COc1ccc(CCN2C(=O)C(O)=C(C(=O)c3ccco3)C2c2cccs2)cc1OC (centres undefined)
Cytochrome P450 1A2
  AC50: 31.6 µM (inconclusive)
fMet-Leu-Phe receptor
  Ki: 19 µM (inactive)
Cytochrome P450 3A4
  AC50: 25.1 µM (inconclusive)

## O=S(=O)(c1ccc2ccccc2c1)N1CCCCC1
Mucolipin-3
  EC50: 15.1 µM (not active)
Ion channel NompC
  EC50: > 29.9 µM (not active)

## O=C(Nc1ccc2ccccc2c1)c1ccccc1O
[1]
  AC50: 6.27 µM (active)
Cells [2]
  EC50: > 350 µM (not active)
[3]
  AC50: > 52 µM (inactive)
[4]
  AC50: 7.6 µM (active)
[5]
  AC50: 6.02 µM (active)
[6]
  EC50: > 67.6 µM (inactive)
Cells [7]
  EC50: 6.87 µM (active)
Cells [8]
  EC50: > 67.6 µM (inactive)
[9]
  AC50: 7.8 µM (active)

## CCN(CC)S(=O)(=O)c1ccc(NC(=O)CN(c2cccc(F)c2)S(C)(=O)=O)cc1
[10]
  EC50: > 50 µM (not active)

## C[C@@H]1CCCCO[C@H](CN(C)Cc2ccc(Cl)c(Cl)c2)[C@H](C)CN([C@@H](C)CO)C(=O)c2cc(NS(=O)(=O)c3ccc(Cl)cc3)ccc2O1
[11]
  AC50: 33.7 µM (active)
Paired box protein Pax-8
  AC50: 6.76 µM (active)
[12]
  AC50: 24.6 µM (active)
[13]
  AC50: 49.7 µM (active)

## Cc1nc(C)c(-c2csc(NCc3ccco3)n2)s1
[10]
  EC50: > 50 µM (not active)

## CCCn1c2c(c(O)c(C(=O)Nc3nccs3)c1=O)CCCC2
Prothrombin
  IC50: > 50 µM (not active)

## Cc1ccc(S(=O)(=O)N2CCC(C)CC2)c([N+](=O)[O-])c1
Mucolipin-3
  EC50: 3.83 µM (active)
Ion channel NompC
  EC50: > 29.9 µM (not active)

## O=C(O)c1cc(N/N=C/c2cccnc2)ccc1Cl
[14]
  IC50: 5.72 µM (active)

## Cc1cc(NC(=O)CSc2nc3ccccc3[nH]2)no1
[10]
  EC50: > 50 µM (not active)

## Cc1cc(-c2ccccc2)n2ncc(-c3ccccc3)c2n1
[1]
  AC50: 39.3 µM (active)
[3]
  AC50: > 52 µM (inactive)
[4]
  AC50: 4.98 µM (active)
[5]
  AC50: 7.1 µM (active)
[6]
  EC50: > 67.5 µM (inactive)
Cells [8]
  EC50: > 67.5 µM (inactive)

## CC(C)(C)c1ccc(C(=O)c2c[nH]c(C(=O)O)c2)cc1
[14]
  IC50: 0.469 µM (active)

## COc1cccc(-c2nc(-c3ccccn3)no2)c1
[15]
  EC50: 8.12 µM (active)
[16]
  EC50: 6.27 µM (active)
HT-1080
  EC50: > 50 µM (not active)
[17]
  EC50: 4.73 µM (active)

## O=C(CSc1nc(-c2ccccc2)nn1C(=O)c1ccccc1)Nc1cccc([N+](=O)[O-])c1
Prothrombin
  IC50: 1.39 µM (active)

## Cc1cc(=O)oc2cc(OC(=O)c3ccco3)ccc12
Prothrombin
  IC50: 0.949 µM (active)

## Cc1n[nH]c(C)c1N=Nc1cc(Cl)ccc1Cl
Cytochrome P450 3A4
  AC50: 17.8 µM (inconclusive)
Cytochrome P450 2C19
  AC50: 1.12 µM (inconclusive)
[18]
  IC50: > 69.5 µM (not active)

## Cc1csc(NC(=O)c2cc3c(s2)CCCC3)n1
[16]
  EC50: 2.99 µM (active)
HT-1080
  EC50: 25.7 µM (active)

## Cc1ccc(S(=O)(=O)Nc2ccc3c(c2)C(=O)N([C@@H](C)CO)C[C@H](C)[C@H](CN(C)Cc2ccc(C(F)(F)F)cc2)OCCCC[C@H](C)O3)cc1
[11]
  AC50: 25.4 µM (active)
Paired box protein Pax-8
  AC50: 6.16 µM (active)
[12]
  AC50: 29.8 µM (active)
[13]
  AC50: 42.5 µM (active)

## COc1ccc(CCNC(=O)COc2ccc(N(C)S(=O)(=O)c3ccc(Cl)cc3)cc2)cc1
Mucolipin-3
  EC50: 6.34 µM (active)
Ion channel NompC
  EC50: > 29.9 µM (not active)

Source: ChEMBL document CHEMBL1201862, “PubChem BioAssay data set” (2004)
